Measured values taken from US20190231751A1, “TREATMENT OF FIBROTIC DISORDERS WITH JUN N-TERMINAL KINASE INHIBITORS” (Imago Pharmaceuticals, Inc., priority 2016, published 2019).

How the values were obtained:
Format in all cases: biochemical
JNK1 = JNK1 (Homo sapiens, UniProt P45983); test: In vitro JNK1 inhibition (Table 1)
Experimental: (§1) In vitro assays for the determination of JNK activities are known in the art and exemplary assay formats are described herein.
(§2) IC50 values in Table 1 were determined using the procedures as described in U.S. Pat. No. 8,450,353.

JNK2 = JNK2 (Homo sapiens, UniProt P45984); test: In vitro JNK2 inhibition (Table 1)
Sequence of JNK2 (P45984 whole entry, species assumed): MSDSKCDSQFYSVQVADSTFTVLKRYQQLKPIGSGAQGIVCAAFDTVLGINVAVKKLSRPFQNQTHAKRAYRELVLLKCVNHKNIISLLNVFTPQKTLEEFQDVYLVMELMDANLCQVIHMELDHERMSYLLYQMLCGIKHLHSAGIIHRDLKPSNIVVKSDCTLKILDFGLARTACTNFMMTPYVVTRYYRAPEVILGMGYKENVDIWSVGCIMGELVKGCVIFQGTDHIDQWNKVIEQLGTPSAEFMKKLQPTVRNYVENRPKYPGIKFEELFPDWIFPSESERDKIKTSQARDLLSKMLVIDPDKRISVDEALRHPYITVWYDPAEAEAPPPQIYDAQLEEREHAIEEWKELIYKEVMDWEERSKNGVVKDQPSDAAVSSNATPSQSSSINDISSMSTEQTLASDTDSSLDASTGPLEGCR
Experimental: as §1, §2

JNK3 = JNK3 (Homo sapiens, UniProt P53779); test: In vitro JNK3 inhibition (Table 1)
Sequence of JNK3 (P53779 whole entry, species assumed): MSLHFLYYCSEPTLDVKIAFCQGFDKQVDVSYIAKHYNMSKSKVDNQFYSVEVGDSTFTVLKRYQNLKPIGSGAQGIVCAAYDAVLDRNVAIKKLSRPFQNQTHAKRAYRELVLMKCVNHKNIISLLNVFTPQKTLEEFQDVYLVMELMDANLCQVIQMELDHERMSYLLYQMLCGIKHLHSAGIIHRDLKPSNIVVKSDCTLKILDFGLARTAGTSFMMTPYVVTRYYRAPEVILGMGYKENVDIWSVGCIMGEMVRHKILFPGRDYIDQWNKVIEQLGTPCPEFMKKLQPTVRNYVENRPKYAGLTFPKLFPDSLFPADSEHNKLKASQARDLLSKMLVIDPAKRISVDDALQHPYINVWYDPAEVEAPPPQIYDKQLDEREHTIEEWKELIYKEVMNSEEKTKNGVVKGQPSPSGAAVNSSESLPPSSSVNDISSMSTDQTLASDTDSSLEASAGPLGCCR
Experimental: as §1, §2

Sequence of JNK1 (P45983 whole entry, species assumed): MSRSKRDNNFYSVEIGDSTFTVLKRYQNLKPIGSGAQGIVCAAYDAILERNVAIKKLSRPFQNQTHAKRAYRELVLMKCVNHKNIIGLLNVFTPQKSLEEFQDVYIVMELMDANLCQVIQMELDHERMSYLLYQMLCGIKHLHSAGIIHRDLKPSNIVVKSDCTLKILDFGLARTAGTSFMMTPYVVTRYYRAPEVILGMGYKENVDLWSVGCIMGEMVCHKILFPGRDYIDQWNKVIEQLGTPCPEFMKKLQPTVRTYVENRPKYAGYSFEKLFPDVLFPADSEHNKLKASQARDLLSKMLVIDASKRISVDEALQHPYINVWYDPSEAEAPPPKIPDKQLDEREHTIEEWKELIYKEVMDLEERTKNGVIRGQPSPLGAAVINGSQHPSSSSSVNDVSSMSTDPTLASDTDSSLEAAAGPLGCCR

| IC50 (JNK1) [nM] | IC50 (JNK2) [nM] | IC50 (JNK3) [nM] | SMILES |
| --- | --- | --- | --- |
| < 100 | – | – | O=C(Cc1cc2ncccc2cc1F)Nc1scc(Br)c1-c1ncn[nH]1 [N-(4-bromo-3-(1H-1,2,4-triazol-5-yl)thiophen-2-yl)-2-(6-fluoroquinolin-7-yl)acetamide] |
| – | 100 to 10000 | – | COc1ccc(CC(=O)Nc2ccsc2-c2nc(N)n[nH]2)cc1 [N-(2-(3-amino-1H-1,2,4-triazol-5-yl)thiophen-3-yl)-2-(4-methoxyphenyl)acetamide] |
| > 10000 | – | > 10000 | Cn1ccnc1-c1sccc1NC(=O)Cc1cccc2ccccc12 [N-(2-(1-methyl-1H-imidazol-2-yl)thiophen-3-yl)-2-(naphthalen-1-yl)acetamide] |
| < 100 | – | – | Cc1cn2c(CC(=O)Nc3scc(Br)c3-c3ncn[nH]3)csc2n1 [N-(4-bromo-3-(1H-1,2,4-triazol-5-yl)thiophen-2-yl)-2-(6-methylimidazo[2,1-b]thiazol-3-yl)acetamide] |
| < 100 | – | < 100 | O=C(Cc1cccc2ccncc12)Nc1scc(Br)c1-c1ncn[nH]1 [N-(4-bromo-3-(1H-1,2,4-triazol-5-yl)thiophen-2-yl)-2-(isoquinolin-8-yl)acetamide] |
| – | – | > 10000 | COc1ccc(CC(=O)Nc2ccsc2-c2nc(-c3ccncc3)n[nH]2)cc1 [2-(4-methoxyphenyl)-N-(2-(3-(pyridin-4-yl)-1H-1,2,4-triazol-5-yl)thiophen-3-yl)acetamide] |
| – | – | 100 to 10000 | O=C(Cc1cccc2ccccc12)Nc1ccsc1-n1ccnc1 [N-(2-(1H-imidazol-1-yl)thiophen-3-yl)-2-(naphthalen-1-yl)acetamide] |
| – | 10000 to 50000 | – | COc1ccc(CC(=O)Nc2sccc2-c2nn[nH]n2)cc1 [N-(3-(2H-tetrazol-5-yl)thiophen-2-yl)-2-(4-methoxyphenyl)-acetamide] |
| < 100 | – | < 100 | O=C(Cc1cc(F)cc2ncccc12)Nc1scc(Br)c1-c1ncn[nH]1 [N-(4-bromo-3-(1H-1,2,4-triazol-5-yl)thiophen-2-yl)-2-(7-fluoroquinolin-5-yl)acetamide] |
| < 100 | – | < 100 | Cc1n[nH]c(-c2c(C)csc2NC(=O)Cc2cccc3ncccc23)n1 [N-(4-methyl-3-(3-methyl-1H-1,2,4-triazol-5-yl)thiophen-2-yl)-2-(quinolin-5-yl)acetamide] |
| < 100 | – | – | O=C(CN1C(=O)CCc2ccccc21)Nc1sccc1-c1ncn[nH]1 [N-(3-(1H-1,2,4-triazol-5-yl)thiophen-2-yl)-2-(2-oxo-3,4-dihydroquinolin-1(2H)-yl)acetamide] |
| < 100 | – | < 100 | O=C(Cn1c(=O)ccc2c(C(F)(F)F)cccc21)Nc1scc(Br)c1-c1ncn[nH]1 [N-(4-bromo-3-(1H-1,2,4-triazol-5-yl)thiophen-2-yl)-2-(2-oxo-5-(trifluoromethyl)quinolin-1(2H)-yl)acetamide] |
| > 10000 | – | > 10000 | COc1ccc(CC(=O)Nc2ccsc2-c2c[nH]cn2)cc1 [N-(2-(1H-imidazol-4-yl)thiophen-3-yl)-2-(4-methoxyphenyl)-acetamide] |
| – | 10000 to 50000 | – | COc1nc(-c2sccc2NC(=O)Cc2cccc3cnccc23)cs1 [2-(isoquinolin-5-yl)-N-(2-(2-methoxythiazol-4-yl)thiophen-3-yl)acetamide] |
| > 10000 | – | > 10000 | COc1ccc(CC(=O)Nc2ccsc2-n2cccn2)cc1 [N-(2-(1H-pyrazol-1-yl)thiophen-3-yl)-2-(4-methoxyphenyl)-acetamide] |
| < 100 | – | < 100 | O=C(Cc1cccc2cnccc12)Nc1scnc1-c1cscn1 [N-(4,4′-bithiazol-5-yl)-2-(isoquinolin-5-yl)acetamide] |
| > 10000 | – | > 10000 | COc1ccc(CC(=O)Nc2ccsc2-n2cncn2)cc1 [N-(2-(1H-1,2,4-triazol-1-yl)thiophen-3-yl)-2-(4-methoxyphenyl)acetamide] |
| > 10000 | – | > 10000 | COc1ccc(CC(=O)Nc2ccsc2-c2nnc(C(C)C)o2)cc1 [N-(2-(5-isopropyl-1,3,4-oxadiazol-2-yl)thiophen-3-yl)-2-(4-methoxyphenyl)acetamide] |
| < 100 | – | < 100 | O=C(Cn1c(=O)ccc2cc(C(F)(F)F)ccc21)Nc1ccsc1-c1cscn1 [2-(2-oxo-6-(trifluoromethyl)quinolin-1(2H)-yl)-N-(2-(thiazol-4-yl)thiophen-3-yl)acetamide] |
| – | – | 100 to 10000 | Cc1nnc(-c2c(C)csc2NC(=O)Cc2ccc(-c3ccncc3)cc2)[nH]1 [N-(4-methyl-3-(5-methyl-4H-1,2,4-triazol-3-yl)thiophen-2-yl)-2-(4-(pyridin-4-yl)phenyl)acetamide] |
| > 10000 | – | > 10000 | Cn1ccc(-c2sccc2NC(=O)Cc2cccc3ccccc23)n1 [N-(2-(1-methyl-1H-pyrazol-3-yl)thiophen-3-yl)-2-(naphthalen-1-yl)acetamide] |

| IC50 (JNK1) [nM] | IC50 (JNK2) [nM] | IC50 (JNK3) [nM] | SMILES |
| --- | --- | --- | --- |
| < 100 | – | – | O=C(Cc1cccc2cc(F)cnc12)Nc1scc(Br)c1-c1nc[nH]n1 [N-(4-bromo-3-(1H-1,2,4-triazol-3-yl)thiophen-2-yl)-2-(3-fluoroquinolin-8-yl)acetamide] |
| < 100 | – | < 100 | O=C(Cc1ccnc2ccccc12)Nc1scc(Br)c1-c1nnc[nH]1 [N-(4-bromo-3-(4H-1,2,4-triazol-3-yl)thiophen-2-yl)-2-(quinolin-4-yl)acetamide] |
| < 100 | – | < 100 | O=C(Cc1cccc2ncsc12)Nc1scc(Br)c1-c1ncn[nH]1 [2-(benzo[d]thiazol-7-yl)-N-(4-bromo-3-(1H-1,2,4-triazol-5-yl)thiophen-2-yl)acetamide] |
| < 100 | – | – | O=C(Cc1cccc2nccn12)Nc1scc(Br)c1-c1ncn[nH]1 [N-(4-bromo-3-(1H-1,2,4-triazol-5-yl)thiophen-2-yl)-2-(imidazo[1,2-a]pyridin-5-yl)acetamide] |
| < 100 | – | < 100 | O=C(CN1C(=O)CCc2ncccc21)Nc1scc(Br)c1-c1nccs1 [N-(4-bromo-3-(thiazol-2-yl)thiophen-2-yl)-2-(2-oxo-3,4-dihydro-1,5-naphthyridin-1(2H)-yl)acetamide] |
| < 100 | – | – | O=C(Cn1c(=O)ccc2cnccc21)Nc1ccsc1-c1cscn1 [2-(2-oxo-1,6-naphthyridin-1(2H)-yl)-N-(2-(thiazol-4-yl)thiophen-3-yl)acetamide] |
| < 100 | – | < 100 | O=C(Cc1ccc(F)c2ncccc12)Nc1scc(Br)c1-c1ncn[nH]1 [N-(4-bromo-3-(1H-1,2,4-triazol-5-yl)thiophen-2-yl)-2-(8-fluoroquinolin-5-yl)acetamide] |
| < 100 | – | – | O=C(CN1C(=O)C(F)(F)c2ccccc21)Nc1scc(Br)c1-c1nnc[nH]1 [N-(4-bromo-3-(4H-1,2,4-triazol-3-yl)thiophen-2-yl)-2-(3,3-difluoro-2-oxoindolin-1-yl)acetamide] |
| < 100 | – | < 100 | CN1CCN(CCCn2cnc(-c3c(Cl)csc3NC(=O)Cn3c(=O)ccc4cc(C(F)(F)F)ccc43)n2)CC1 [N-(4-chloro-3-(1-(3-(4-methylpiperazin-1-yl)propyl)-1H-1,2,4-triazol-3-yl)thiophen-2-yl)-2-(2-oxo-6-(trifluoromethyl)quinolin-1(2H)-yl)acetamide] |
| < 100 | – | – | CC(C)c1n[nH]c(-c2c(Cl)csc2NC(=O)CN2C(=O)CCc3ncccc32)n1 [N-(4-chloro-3-(3-isopropyl-1H-1,2,4-triazol-5-yl)thiophen-2-yl)-2-(2-oxo-3,4-dihydro-1,5-naphthyridin-1(2H)-yl)acetamide] |
| < 100 | – | < 100 | O=C(Cc1cccc2ncc(C(F)(F)F)cc12)Nc1scc(Br)c1-c1nc[nH]n1 [N-(4-bromo-3-(1H-1,2,4-triazol-3-yl)thiophen-2-yl)-2-(3-(trifluoromethyl)quinolin-5-yl)acetamide] |
| – | – | > 10000 | COc1ccc(CC(=O)Nc2ccsc2N2CCOC2=O)cc1 [2-(4-methoxyphenyl)-N-(2-(2-oxooxazolidin-3-yl)thiophen-3-yl)acetamide] |
| < 100 | – | – | O=C(Cc1ccc(C(F)(F)F)c2ncccc12)Nc1scc(Cl)c1-c1ncn[nH]1 [N-(4-chloro-3-(1H-1,2,4-triazol-5-yl)thiophen-2-yl)-2-(8-(trifluoromethyl)quinolin-5-yl)acetamide] |
| < 100 | – | < 100 | N#Cc1csc(NC(=O)Cc2cccc3ncccc23)c1-c1cnccn1 [N-(4-cyano-3-(pyrazin-2-yl)thiophen-2-yl)-2-(quinolin-5-yl)acetamide] |
| 100 to 10000 | – | 100 to 10000 | COCn1nnnc1-c1ccsc1NC(=O)Cc1ccc(OC)cc1 [N-(3-(1-(methoxymethyl)-1H-tetrazol-5-yl)thiophen-2-yl)-2-(4-methoxyphenyl)acetamide] |
| > 10000 | – | > 10000 | Cc1nc(-c2sccc2NC(=O)Cc2cccc3ccccc23)n(C)n1 [N-(2-(1,3-dimethyl-1H-1,2,4-triazol-5-yl)thiophen-3-yl)-2-(naphthalen-1-yl)acetamide] |
| < 100 | – | < 100 | CCc1n[nH]c(-c2c(Cl)csc2NC(=O)CN2C(=O)CCc3ncccc32)n1 [N-(4-chloro-3-(3-ethyl-1H-1,2,4-triazol-5-yl)thiophen-2-yl)-2-(2-oxo-3,4-dihydro-1,5-naphthyridin-1(2H)-yl)acetamide] |
| 100 to 10000 | – | 100 to 10000 | COc1ccc(CC(=O)Nc2ccsc2-n2nccn2)cc1 [N-(2-(2H-1,2,3-triazol-2-yl)thiophen-3-yl)-2-(4-methoxyphenyl)acetamide] |
| > 10000 | – | > 10000 | COc1ccc(CC(=O)Nc2ccsc2-c2c[nH]c(C)n2)cc1 [2-(4-methoxyphenyl)-N-(2-(2-methyl-1H-imidazol-4-yl)thiophen-3-yl)acetamide] |
| > 10000 | – | > 10000 | Cc1nc(-c2sccc2NC(=O)CN2C(=O)CCc3ccccc32)c[nH]1 [N-(2-(2-methyl-1H-imidazol-4-yl)thiophen-3-yl)-2-(2-oxo-3,4-dihydroquinolin-1(2H)-yl)acetamide] |
| < 100 | – | – | O=C(Cn1c(=O)ccc2cc(F)c(F)cc21)Nc1sccc1-c1ncon1 [N-(3-(1,2,4-oxadiazol-3-yl)thiophen-2-yl)-2-(6,7-difluoro-2-oxoquinolin-1(2H)-yl)acetamide] |
